Measurements taken from the kinase profiling compilation of Christmann-Franck et al. (2016).

Key:
Assay in all cases: radiometric filter-binding kinase assay, Kinaseprofiler
[1] = tested on: ABL1 (human), P00519 [T315I]; details: compound 1.0 µM; ATP 10 µM
ACVR1B (human) = ACVR1B (human) (UniProt P36896); details: compound 1.0 µM; ATP 10 µM
[2] = tested on: AURKA (human), O14965 [I31F]; details: compound 1.0 µM; ATP 15 µM
BMX (human) = BMX (human) (UniProt P51813); details: compound 1.0 µM; ATP 45 µM
CDC42BPA (human) = CDC42BPA (human) (UniProt Q5VT25); details: compound 1.0 µM; ATP 45 µM
CDK5 CDK5R1 p35 (human) = CDK5 CDK5R1 p35 (human) (UniProt Q00535+Q15078); details: compound 1.0 µM; ATP 15 µM
CDK9 CCNT1 (human) = CDK9 CCNT1 (human) (UniProt P50750+O60563); details: compound 1.0 µM; ATP 45 µM
CSK (human) = CSK (human) (UniProt P41240); details: compound 1.0 µM; ATP 15 µM
DAPK1 (human) = DAPK1 (human) (UniProt P53355); details: compound 1.0 µM; ATP 70 µM
EGFR (human) = EGFR (human) (UniProt P00533); details: compound 1.0 µM; ATP 10 µM
[3] = tested on: EGFR (human), P00533 [L861Q]; details: compound 1.0 µM; ATP 10 µM
EPHA7 (human) = EPHA7 (human) (UniProt Q15375); details: compound 1.0 µM; ATP 90 µM
ERBB4 (human) = ERBB4 (human) (UniProt Q15303); details: compound 1.0 µM; ATP 15 µM
FES (human) = FES (human) (UniProt P07332); details: compound 1.0 µM; ATP 45 µM
FGFR3 (human) = FGFR3 (human) (UniProt P22607); details: compound 1.0 µM; ATP 15 µM
[4] = tested on: GSK3A (human), P49840 [S449A]; details: compound 1.0 µM; ATP 10 µM
HIPK1 (human) = HIPK1 (human) (UniProt Q86Z02); details: compound 1.0 µM; ATP 45 µM
KIT (human) = KIT (human) (UniProt P10721); details: compound 1.0 µM; ATP 200 µM
LIMK1 (human) = LIMK1 (human) (UniProt P53667); details: compound 1.0 µM; ATP 15 µM
MAP2K4 (mouse) = details: compound 1.0 µM; accession and sequence are those of the human protein
MAPK10 (human) = MAPK10 (human) (UniProt P53779); details: compound 1.0 µM; ATP 10 µM
MAPK14 (human) = MAPK14 (human) (UniProt Q16539); details: compound 1.0 µM; ATP 90 µM
MAPKAPK3 (human) = MAPKAPK3 (human) (UniProt Q16644); details: compound 1.0 µM; ATP 90 µM
NEK7 (human) = NEK7 (human) (UniProt Q8TDX7); details: compound 1.0 µM; ATP 45 µM
NTRK2 (human) = NTRK2 (human) (UniProt Q16620); details: compound 1.0 µM; ATP 90 µM
PAK3 (human) = PAK3 (human) (UniProt O75914); details: compound 1.0 µM; ATP 120 µM
PAK4 (human) = PAK4 (human) (UniProt O96013); details: compound 1.0 µM; ATP 10 µM
PAK7 (human) = PAK7 (human) (UniProt Q9P286); details: compound 1.0 µM; ATP 15 µM
PRKCZ (human) = PRKCZ (human) (UniProt Q05513); details: compound 1.0 µM; ATP 15 µM
PRKD1 (human) = PRKD1 (human) (UniProt Q15139); details: compound 1.0 µM; ATP 45 µM
[5] = tested on: RAF1 (human), P04049 [Y340D/Y341D]; details: compound 1.0 µM; ATP 45 µM
RET (human) = RET (human) (UniProt P07949); details: compound 1.0 µM; ATP 70 µM
RPS6KA5 KD1 KD2 (human) = RPS6KA5 KD1 KD2 (human) (UniProt O75582); details: compound 1.0 µM; ATP 90 µM
SRC (human) = SRC (human) (UniProt P12931); details: compound 1.0 µM; ATP 200 µM
SRPK1 (human) = SRPK1 (human) (UniProt Q96SB4); details: compound 1.0 µM; ATP 10 µM
SRPK2 (human) = SRPK2 (human) (UniProt P78362); details: compound 1.0 µM; ATP 10 µM
STK24 (human) = STK24 (human) (UniProt Q9Y6E0); details: compound 1.0 µM; ATP 15 µM
STK4 (human) = STK4 (human) (UniProt Q13043); details: compound 1.0 µM; ATP 90 µM
WNK2 (human) = WNK2 (human) (UniProt Q9Y3S1); details: compound 1.0 µM; ATP 200 µM

Chain of FGFR3 (human) (P22607 whole entry, looked up): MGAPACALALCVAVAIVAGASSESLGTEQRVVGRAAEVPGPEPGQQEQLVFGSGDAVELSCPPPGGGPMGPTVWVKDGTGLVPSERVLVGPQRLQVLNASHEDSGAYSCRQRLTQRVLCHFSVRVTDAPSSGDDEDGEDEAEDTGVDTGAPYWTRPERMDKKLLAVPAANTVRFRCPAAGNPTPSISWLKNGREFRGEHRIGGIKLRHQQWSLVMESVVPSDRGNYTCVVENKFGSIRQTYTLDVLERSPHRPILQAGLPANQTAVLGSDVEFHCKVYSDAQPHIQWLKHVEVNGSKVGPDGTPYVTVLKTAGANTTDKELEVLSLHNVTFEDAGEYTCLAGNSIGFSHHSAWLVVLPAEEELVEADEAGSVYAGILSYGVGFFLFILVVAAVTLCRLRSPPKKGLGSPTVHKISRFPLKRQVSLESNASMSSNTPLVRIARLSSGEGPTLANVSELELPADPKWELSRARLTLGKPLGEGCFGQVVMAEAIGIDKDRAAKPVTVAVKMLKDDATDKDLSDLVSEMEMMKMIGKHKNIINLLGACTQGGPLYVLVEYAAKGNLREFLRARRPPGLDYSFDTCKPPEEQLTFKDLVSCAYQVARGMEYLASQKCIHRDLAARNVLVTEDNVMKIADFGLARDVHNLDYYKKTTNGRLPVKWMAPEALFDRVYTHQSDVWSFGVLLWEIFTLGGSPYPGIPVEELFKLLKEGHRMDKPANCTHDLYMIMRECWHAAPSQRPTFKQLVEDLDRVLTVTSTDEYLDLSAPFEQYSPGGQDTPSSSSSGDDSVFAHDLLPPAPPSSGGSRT
Chain of RPS6KA5 KD1 KD2 (human) (O75582 whole entry, looked up): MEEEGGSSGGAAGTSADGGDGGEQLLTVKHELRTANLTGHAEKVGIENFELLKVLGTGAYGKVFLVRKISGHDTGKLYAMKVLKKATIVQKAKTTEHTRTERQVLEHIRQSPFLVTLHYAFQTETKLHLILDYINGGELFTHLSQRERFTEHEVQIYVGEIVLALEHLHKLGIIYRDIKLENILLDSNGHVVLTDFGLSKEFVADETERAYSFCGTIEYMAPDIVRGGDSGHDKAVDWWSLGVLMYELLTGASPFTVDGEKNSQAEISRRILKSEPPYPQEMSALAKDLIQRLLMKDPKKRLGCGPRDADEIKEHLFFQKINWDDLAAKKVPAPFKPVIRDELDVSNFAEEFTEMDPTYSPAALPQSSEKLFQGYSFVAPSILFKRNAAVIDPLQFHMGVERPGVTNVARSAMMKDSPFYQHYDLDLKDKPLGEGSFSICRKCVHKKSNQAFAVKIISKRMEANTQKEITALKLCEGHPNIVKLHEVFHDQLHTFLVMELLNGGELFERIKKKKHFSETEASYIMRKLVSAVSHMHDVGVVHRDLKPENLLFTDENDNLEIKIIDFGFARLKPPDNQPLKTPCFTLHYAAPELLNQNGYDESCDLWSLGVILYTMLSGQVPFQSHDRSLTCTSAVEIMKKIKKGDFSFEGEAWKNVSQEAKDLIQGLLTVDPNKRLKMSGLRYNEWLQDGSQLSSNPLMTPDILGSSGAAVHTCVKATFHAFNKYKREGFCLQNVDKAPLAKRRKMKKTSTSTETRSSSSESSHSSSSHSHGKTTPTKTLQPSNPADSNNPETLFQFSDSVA
Chain of SRC (human) (P12931 whole entry, looked up): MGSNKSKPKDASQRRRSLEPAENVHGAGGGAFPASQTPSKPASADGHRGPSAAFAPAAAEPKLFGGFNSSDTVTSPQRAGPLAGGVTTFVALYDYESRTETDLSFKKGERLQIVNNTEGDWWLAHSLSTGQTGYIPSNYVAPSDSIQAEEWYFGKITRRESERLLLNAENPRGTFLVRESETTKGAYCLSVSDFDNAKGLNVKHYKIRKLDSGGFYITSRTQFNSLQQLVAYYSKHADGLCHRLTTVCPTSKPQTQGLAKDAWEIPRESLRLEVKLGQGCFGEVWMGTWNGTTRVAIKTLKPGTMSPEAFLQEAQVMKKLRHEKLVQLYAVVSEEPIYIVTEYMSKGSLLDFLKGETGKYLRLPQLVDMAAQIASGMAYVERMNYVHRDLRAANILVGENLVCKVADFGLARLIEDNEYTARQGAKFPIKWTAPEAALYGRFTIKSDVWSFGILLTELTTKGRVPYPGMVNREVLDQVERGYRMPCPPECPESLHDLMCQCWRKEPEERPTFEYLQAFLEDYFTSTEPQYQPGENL
Chain of PAK4 (human) (O96013 whole entry, looked up): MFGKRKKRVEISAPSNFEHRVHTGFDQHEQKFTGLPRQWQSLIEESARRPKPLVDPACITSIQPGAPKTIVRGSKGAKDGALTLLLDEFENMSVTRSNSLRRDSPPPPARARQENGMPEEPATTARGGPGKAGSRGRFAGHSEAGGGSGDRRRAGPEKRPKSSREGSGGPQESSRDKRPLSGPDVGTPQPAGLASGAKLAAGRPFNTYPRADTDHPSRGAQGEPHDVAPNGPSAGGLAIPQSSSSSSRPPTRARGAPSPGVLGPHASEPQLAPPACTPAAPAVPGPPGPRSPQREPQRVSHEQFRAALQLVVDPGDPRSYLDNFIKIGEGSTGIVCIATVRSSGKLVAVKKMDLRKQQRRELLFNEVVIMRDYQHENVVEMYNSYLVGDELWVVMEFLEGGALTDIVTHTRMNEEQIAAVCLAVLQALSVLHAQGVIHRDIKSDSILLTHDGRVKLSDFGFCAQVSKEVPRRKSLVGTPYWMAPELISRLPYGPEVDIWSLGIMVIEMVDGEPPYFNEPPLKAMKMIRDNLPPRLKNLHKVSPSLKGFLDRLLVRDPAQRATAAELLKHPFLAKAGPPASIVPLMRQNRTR
Chain of ERBB4 (human) (Q15303 whole entry, looked up): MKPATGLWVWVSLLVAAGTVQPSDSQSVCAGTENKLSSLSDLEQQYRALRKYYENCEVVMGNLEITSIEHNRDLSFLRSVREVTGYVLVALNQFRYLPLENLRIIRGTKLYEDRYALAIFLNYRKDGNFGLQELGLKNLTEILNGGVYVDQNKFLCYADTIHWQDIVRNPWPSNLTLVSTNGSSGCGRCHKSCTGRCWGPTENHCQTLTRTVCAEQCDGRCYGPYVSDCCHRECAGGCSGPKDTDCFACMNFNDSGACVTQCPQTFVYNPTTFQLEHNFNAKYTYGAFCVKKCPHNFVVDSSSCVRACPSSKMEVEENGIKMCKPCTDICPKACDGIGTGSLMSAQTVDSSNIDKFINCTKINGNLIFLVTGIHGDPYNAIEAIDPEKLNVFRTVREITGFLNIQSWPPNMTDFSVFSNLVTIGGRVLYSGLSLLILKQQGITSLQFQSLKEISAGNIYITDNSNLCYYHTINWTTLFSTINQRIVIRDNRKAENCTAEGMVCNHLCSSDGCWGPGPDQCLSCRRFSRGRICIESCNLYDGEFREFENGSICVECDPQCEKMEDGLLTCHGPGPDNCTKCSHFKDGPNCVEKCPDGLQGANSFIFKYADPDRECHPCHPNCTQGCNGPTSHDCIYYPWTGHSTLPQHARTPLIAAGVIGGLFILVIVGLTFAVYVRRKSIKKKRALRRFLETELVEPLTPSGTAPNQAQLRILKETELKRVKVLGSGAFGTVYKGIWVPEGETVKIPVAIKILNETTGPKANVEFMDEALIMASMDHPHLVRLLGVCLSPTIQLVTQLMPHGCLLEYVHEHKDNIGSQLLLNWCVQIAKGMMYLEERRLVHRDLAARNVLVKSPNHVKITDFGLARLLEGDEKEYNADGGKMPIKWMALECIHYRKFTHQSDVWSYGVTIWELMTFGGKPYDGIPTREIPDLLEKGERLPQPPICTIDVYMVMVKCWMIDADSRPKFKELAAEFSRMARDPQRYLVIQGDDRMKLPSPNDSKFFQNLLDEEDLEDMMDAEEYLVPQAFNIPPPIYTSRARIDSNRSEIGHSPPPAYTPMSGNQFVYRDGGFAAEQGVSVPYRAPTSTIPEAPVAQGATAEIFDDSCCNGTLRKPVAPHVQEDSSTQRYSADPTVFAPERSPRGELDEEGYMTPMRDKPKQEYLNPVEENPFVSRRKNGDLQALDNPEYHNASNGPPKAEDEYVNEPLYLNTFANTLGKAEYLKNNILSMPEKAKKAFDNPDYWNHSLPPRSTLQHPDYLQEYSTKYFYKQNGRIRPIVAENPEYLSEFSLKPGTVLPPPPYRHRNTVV
Chain of STK4 (human) (Q13043 whole entry, looked up): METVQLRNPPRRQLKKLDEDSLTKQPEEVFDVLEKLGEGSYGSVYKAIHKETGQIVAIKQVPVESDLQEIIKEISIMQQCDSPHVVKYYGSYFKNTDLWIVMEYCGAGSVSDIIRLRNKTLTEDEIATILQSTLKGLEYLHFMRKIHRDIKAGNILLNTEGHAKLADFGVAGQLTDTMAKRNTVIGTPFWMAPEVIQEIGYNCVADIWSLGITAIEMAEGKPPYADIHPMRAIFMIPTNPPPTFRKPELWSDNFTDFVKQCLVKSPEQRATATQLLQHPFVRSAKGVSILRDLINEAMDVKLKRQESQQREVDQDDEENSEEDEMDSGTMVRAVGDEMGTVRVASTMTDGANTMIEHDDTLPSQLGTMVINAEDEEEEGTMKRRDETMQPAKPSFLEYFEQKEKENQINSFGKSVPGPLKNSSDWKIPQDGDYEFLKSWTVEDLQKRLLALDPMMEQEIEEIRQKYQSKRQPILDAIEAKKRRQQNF
Chain of MAPKAPK3 (human) (Q16644 whole entry, looked up): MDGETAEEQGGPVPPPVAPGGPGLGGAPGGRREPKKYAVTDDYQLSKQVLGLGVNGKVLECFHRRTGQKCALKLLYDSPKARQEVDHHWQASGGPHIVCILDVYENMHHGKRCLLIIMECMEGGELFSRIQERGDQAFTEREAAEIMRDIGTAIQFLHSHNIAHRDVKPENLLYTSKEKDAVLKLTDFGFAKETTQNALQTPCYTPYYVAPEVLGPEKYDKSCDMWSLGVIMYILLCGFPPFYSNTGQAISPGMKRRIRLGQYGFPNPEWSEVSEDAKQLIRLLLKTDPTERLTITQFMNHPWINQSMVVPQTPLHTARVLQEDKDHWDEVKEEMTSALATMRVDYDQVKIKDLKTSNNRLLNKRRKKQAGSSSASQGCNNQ

SMILES: CN(C)S(=O)(=O)Nc1ccc2ccc3ncc(-c4cnn(C)c4)cc3c(=O)c2c1
- residual activity [1]: 35%
- residual activity (ACVR1B (human)): 100%
- residual activity [2]: 7%
- residual activity (BMX (human)): 73%
- residual activity (CDC42BPA (human)): 107%
- residual activity (CDK5 CDK5R1 p35 (human)): 93%
- residual activity (CDK9 CCNT1 (human)): 107%
- residual activity (CSK (human)): 85%
- residual activity (DAPK1 (human)): 90%
- residual activity (EGFR (human)): 100%
- residual activity [3]: 97%
- residual activity (EPHA7 (human)): 101%
- residual activity (ERBB4 (human)): 84%
- residual activity (FES (human)): 113%
- residual activity (FGFR3 (human)): 4%
- residual activity [4]: 86%
- residual activity (HIPK1 (human)): 116%
- residual activity (KIT (human)): 78%
- residual activity (LIMK1 (human)): 72%
- residual activity (MAP2K4 (mouse)): 87%
- residual activity (MAPK10 (human)): 53%
- residual activity (MAPK14 (human)): 124%
- residual activity (MAPKAPK3 (human)): 102%
- residual activity (NEK7 (human)): 112%
- residual activity (NTRK2 (human)): 15%
- residual activity (PAK3 (human)): 99%
- residual activity (PAK4 (human)): 94%
- residual activity (PAK7 (human)): 101%
- residual activity (PRKCZ (human)): 95%
- residual activity (PRKD1 (human)): 93%
- residual activity [5]: 72%
- residual activity (RET (human)): 2%
- residual activity (RPS6KA5 KD1 KD2 (human)): 101%
- residual activity (SRC (human)): 125%
- residual activity (SRPK1 (human)): 102%
- residual activity (SRPK2 (human)): 104%
- residual activity (STK24 (human)): 102%
- residual activity (STK4 (human)): 80%
- residual activity (WNK2 (human)): 126%
